Reference: the supplement of paper PMC10307832

Compound: CN(C/C=C/C1=CC=C(C=C1)Cl)CC2=CC=CC=C2N(CCO)S(=O)(=O)C3=CC=C(C=C3)OC [KN-93]
Test: relative viability (nuclei count vs DMSO), 5 days (fraction); higher = more cells survive
Outline: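 MetaXpress counted nuclei in 4× images of lung cancer cell lines that had been fixed, permeabilised and Hoechst-stained in one step. Before that, cells in 1536-well plates were kept overnight at 37 °C, pinned with five √10-spaced library-drug doses on vehicle-anchored plates, and cultured 5 days without medium change. Viability takes treated-well nuclei over vehicle-well nuclei and uses the median across plates. Plates were accepted only at control CV below 25% and at least one doubling.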

Row | Cell Line | relative viability (0.08 µM) | relative viability (0.253 µM) | relative viability (2.53 µM) | relative viability (8 µM)
1 | 201T | 1.03 | 0.85 | 0.958 | 0.684
2 | A-427 | 1.03 | 1.21 | 0.976 | 0.531
3 | ABC-1 | 0.999 | 0.99 | 0.773 | 0.312
4 | BEN | 0.881 | 0.969 | 1.08 | 0.688
5 | CAL-12T | 1.09 | 0.983 | 1.09 | 0.744
6 | COR-L23 | 0.848 | 1.09 | 1.08 | 0.665
7 | COR-L 105 | 1.02 | 0.932 | 0.808 | 0.682
8 | ChaGo-K-1 | 0.887 | 1.14 | 0.999 | 0.72
9 | EKVX | 0.839 | 0.768 | 1.04 | 0.691
10 | EMC-BAC-2 | 1.05 | 1.04 | 1.08 | 0.794
11 | EPLC-272H | 0.899 | 0.965 | 0.92 | 0.59
12 | H3255 | 1.03 | 0.992 | 0.969 | 0.666
13 | HARA | 0.871 | 0.943 | 0.827 | 0.565
14 | HCC-15 | 0.862 | 1.03 | 1.08 | 0.893
15 | HCC-44 | 1.02 | 0.912 | 1.12 | 0.764
16 | HCC-78 | 0.941 | 0.828 | 1.04 | 0.744
17 | HCC-366 | 0.835 | 1.1 | 1.11 | 0.863
18 | HCC-827 | 1.08 | 1.05 | 1.05 | 0.851
19 | HOP-62 | 1.06 | 1.07 | 1.17 | 0.733
20 | IA-LM | 0.896 | 0.948 | 1.47 | 0.875
21 | LC-2-ad | 0.965 | 1.16 | 0.995 | 0.725
22 | LCLC-97TM1 | 0.975 | 1.29 | 1.09 | 0.601
23 | LCLC-103H | 0.869 | 1.14 | 0.945 | 0.812
24 | LK-2 | 1.07 | 1.17 | 1.37 | 0.846
25 | LOU-NH91 | 0.988 | 0.834 | 0.963 | 0.842

Row | Cell Line | relative viability (0.08 µM) | relative viability (0.253 µM) | relative viability (2.53 µM) | relative viability (8 µM)
26 | LU99A | 0.953 | 0.951 | 1.01 | 0.74
27 | LXF-289 | 0.942 | 1.07 | 1.02 | 0.828
28 | NCI-H23 | 0.997 | 1.18 | 1.02 | 0.56
29 | NCI-H322M | 0.872 | 0.941 | 0.959 | 0.768
30 | NCI-H358 | 0.834 | 1.04 | 0.916 | 0.539
31 | NCI-H441 | 0.709 | 1.14 | 1.3 | 0.731
32 | NCI-H460 | 0.821 | 1.06 | 1.03 | 0.652
33 | NCI-H520 | 0.91 | 1.05 | 1.14 | 0.815
34 | NCI-H596 | 0.913 | 1.15 | 0.941 | 0.5
35 | NCI-H647 | 0.985 | 1.25 | 1.01 | 0.813
36 | NCI-H650 | 1.01 | 1.1 | 1.11 | 0.598
37 | NCI-H661 | 0.938 | 1.02 | 0.968 | 0.583
38 | NCI-H727 | 1.03 | 0.833 | 1.02 | 0.649
39 | NCI-H838 | 0.935 | 0.883 | 1.02 | 0.908
40 | NCI-H1355 | 0.834 | 0.891 | 1.06 | 0.724
41 | NCI-H1395 | 0.965 | 0.969 | 0.914 | 0.571
42 | NCI-H1437 | 1.03 | 1.09 | 0.895 | 0.584
43 | NCI-H1563 | 0.967 | 0.936 | 0.88 | 0.758
44 | NCI-H1650 | 0.796 | 0.808 | 0.941 | 0.569
45 | NCI-H1651 | 0.932 | 1.07 | 1.09 | 0.865
46 | NCI-H1666 | 0.969 | 0.921 | 0.995 | 0.875
47 | NCI-H1703 | 0.871 | 0.89 | 0.841 | 0.459
48 | NCI-H1734 | 0.942 | 1.15 | 1.14 | 0.668
49 | NCI-H1755 | 0.915 | 1.03 | 1.03 | 0.758
50 | NCI-H1792 | 0.783 | 0.83 | 0.948 | 0.703

Row | Cell Line | relative viability (0.08 µM) | relative viability (0.253 µM) | relative viability (2.53 µM) | relative viability (8 µM)
51 | NCI-H1793 | 0.742 | 0.984 | 1.11 | 0.264
52 | NCI-H1915 | 0.952 | 1.24 | 0.993 | 0.947
53 | NCI-H1944 | 0.885 | 0.885 | 0.942 | 0.803
54 | NCI-H1975 | 0.886 | 0.942 | 0.945 | 0.706
55 | NCI-H1993 | 0.973 | 0.921 | 1.04 | 0.772
56 | NCI-H2009 | 1.01 | 1.05 | 0.922 | 0.603
57 | NCI-H2023 | 0.906 | 1.01 | 1.08 | 0.534
58 | NCI-H2085 | 0.951 | 1.01 | 1.05 | 0.81
59 | NCI-H2087 | 0.788 | 1.13 | 1.12 | 0.533
60 | NCI-H2126 | 0.96 | 0.887 | 1.08 | 0.902
61 | NCI-H2170 | 0.761 | 1.03 | 1.01 | 0.676
62 | NCI-H2228 | 0.904 | 1.27 | 1.41 | 0.711
63 | NCI-H2342 | 0.911 | 0.959 | 0.977 | 0.818
64 | NCI-H2347 | 1.03 | 1.11 | 1.08 | 0.797
65 | NCI-H2405 | 1.03 | 1.02 | 1.03 | 0.728
66 | NCI-H3122 | 0.972 | 1.02 | 1.07 | 0.931
67 | PC-3 [JPC-3] | 1 | 1.11 | 1.01 | 0.866
68 | PC-14 | 0.943 | 1.04 | 1.2 | 0.92
69 | RERF-LC-KJ | 0.915 | 1.05 | 0.967 | 0.693
70 | SK-LU-1 | 0.8 | 1.26 | 1.16 | 0.759
71 | SK-MES-1 | 0.888 | 0.981 | 1.07 | 0.766
72 | SW 900 | 0.9 | 0.704 | 1 | 0.508
73 | SW 1573 | 0.862 | 1.13 | 1.02 | 0.514
74 | UMC-11 | 0.903 | 1.14 | 1.14 | 0.374
